Reference: patent publication US20070172422A1, “Exponential pattern recognition based cellular targeting compositions, methods and anticancer applications” (priority 2001, published 2007)
Each block holds one compound with its values, some of them ahead of it.

How the values were obtained:
[1] = times more potent than doxorubicin; cited from earlier work
[2] = tested on: cells including adriamycin resistant tumor lines; details: cited from earlier work
[3] = molecular target: PSMA (Homo sapiens, UniProt Q04609); experiment: inhibition of the enzymatic activity of PSMA; assay type: biochemical
Description: The ability of Compound 8 to inhibit the enzymatic activity of PSMA (and consequently to bind to the enzyme) was evaluated using the method described previously in Ser. No. 09/712,465 Nov. 15, 2000 Glazier, Arnold. “Selective Cellular Targeting: Multifunctional Delivery Vehicles, Multifunctional Prodrugs, Use as Neoplastic Drugs. The IC50 for Compound 8 was 8 nanomolar.

PSMA, sequence (Q04609 whole entry, species assumed): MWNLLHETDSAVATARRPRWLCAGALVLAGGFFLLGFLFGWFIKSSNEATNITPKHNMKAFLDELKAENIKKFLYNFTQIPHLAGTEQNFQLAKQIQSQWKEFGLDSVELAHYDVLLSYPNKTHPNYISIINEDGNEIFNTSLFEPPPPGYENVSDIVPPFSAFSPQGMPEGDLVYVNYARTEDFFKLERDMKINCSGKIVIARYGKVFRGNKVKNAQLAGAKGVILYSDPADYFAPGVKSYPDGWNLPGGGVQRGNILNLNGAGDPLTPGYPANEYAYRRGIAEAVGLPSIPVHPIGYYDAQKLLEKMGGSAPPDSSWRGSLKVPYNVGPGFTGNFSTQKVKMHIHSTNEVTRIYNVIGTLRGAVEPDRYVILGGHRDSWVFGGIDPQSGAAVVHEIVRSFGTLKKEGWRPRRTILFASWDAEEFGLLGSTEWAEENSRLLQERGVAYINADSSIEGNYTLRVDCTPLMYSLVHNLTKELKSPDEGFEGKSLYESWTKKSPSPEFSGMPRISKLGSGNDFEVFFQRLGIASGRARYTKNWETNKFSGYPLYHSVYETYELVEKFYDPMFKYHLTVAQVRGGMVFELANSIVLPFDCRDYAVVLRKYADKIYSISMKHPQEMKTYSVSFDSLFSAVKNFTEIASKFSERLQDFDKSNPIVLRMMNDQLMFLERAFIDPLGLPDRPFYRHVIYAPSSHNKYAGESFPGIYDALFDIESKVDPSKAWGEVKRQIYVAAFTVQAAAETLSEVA

SMILES: COc1cccc2c1C(=O)c1c(O)c3c(c(O)c1C2=O)C[C@@](O)(C(=O)CO)C[C@@H]3O[C@H]1C[C@H](N2C=CCC2)[C@H](O)[C@H](C)O1 [2-pyrrolinodoxorubicin]
potency relative to doxorubicin [1]: 500-1000 times

SMILES: CO[C@@H]1[C@H](O)C[C@@H](O[C@@H]2C[C@H](Oc3cc4cc5c(c(O)c4c(O)c3C)C(=O)[C@@H](O[C@H]3C[C@@H](O[C@H]4C[C@@H](O[C@H]6C[C@](C)(O)[C@@H](OC(C)=O)[C@H](C)O6)[C@H](O)[C@@H](C)O4)[C@H](O)[C@@H](C)O3)[C@H]([C@H](OC)C(=O)[C@@H](O)[C@@H](C)O)C5)O[C@H](C)[C@@H]2OC(C)=O)O[C@@H]1C [Chromomycin A3]
concentrations at which cytotoxic [2]: subnanomolar concentrations

IC50 [3]: 8 nM
SMILES: COc1ccc(C(=O)NCCOCCOCCOCCNC(=O)CCC(NC(=O)NC(CCC(=O)O)C(=O)O)C(=O)O)cc1 (stereo not drawn) [Compound 8]
